The results in this text go back to PubChem BioAssay (NCI).

What all share (assay): growth of human tumour cells (NCI), 48 h
The test system of experiment [1] is SW-620 colon.
The test system of experiment [2] is T-47D breast.
Experiment [3] concerns SNB-19 CNS.
For experiment [4], the system named is KM12 colon.
Experiment [5] concerns SK-MEL-5 melanoma.
For experiment [6], the system named is UACC-257 melanoma.
Experiment [7] relates to ACHN renal.
Experiment [8] has as its system NCI-H23 lung.
In experiment [9] the test system is MOLT-4 leukemia.
Experiment [10] has as its system SNB-75 CNS.

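Step 1: Grow cells in 96-well plates. Step 2: Expose to compound for 48 hours at 5 concentrations. Step 3: Interpolate endpoints linearly; if unreached, use highest concentration. GI50: concentration for 50% inhibition of growth. TGI denotes the concentration required for complete inhibition of growth.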

As for `C=C(C)[C@@]1(O[Si](C)(C)C)CCCC[C@@H]1CC(Sc1ccccc1)Sc1ccccc1`, the TGI came out at 30.2 µM in experiment [1]; 18.8 µM in experiment [2]; 30.6 µM in [3]; 23.8 µM in experiment [4]; 34.8 µM in [5]; 29.7 µM in [6]. Further, the TGI was determined as 28.8 µM in [7], 30.9 µM in experiment [8], 25.7 µM in experiment [9] and 25.7 µM in experiment [10].

Take `c1ccc(C2=Nn3c(CCCCCCCCc4nnc5n4N=C(c4ccccc4)CS5)nnc3SC2)cc1`: the TGI in [1] is more than 100 µM; in experiment [2], more than 100 µM; in experiment [3], 43.3 µM; in [4], more than 100 µM; in [5] it was more than 100 µM; in [6], more than 100 µM. Also, the TGI in experiment [7] is more than 100 µM; in experiment [8] it was more than 100 µM; in experiment [9] it was more than 77.9 µM; in experiment [10] it was 33.6 µM.

`COC(=O)c1cc(C)ccc1CC(Cc1ccc(C)cc1)C(=O)OC` (configuration not stated): the TGI in [1] is more than 100 µM; in experiment [2], more than 100 µM; in experiment [3], more than 100 µM; in experiment [4], more than 100 µM; in experiment [5] it was 12.6 µM; in [6], more than 100 µM. Moreover, the TGI was more than 100 µM in experiment [7], more than 100 µM in experiment [8], more than 49.5 µM in experiment [9] and more than 90.7 µM in experiment [10].

As for `Cc1c(C#N)c(N)n(C2OCC(O)C(O)C2O)c(=S)c1C#N` (configuration not stated), the TGI in experiment [1], in [2], in experiment [3], in experiment [4], in experiment [5] and in experiment [6] was more than 100 µM in each case. The TGI in experiment [7], in [8], in experiment [9] and in experiment [10] was more than 100 µM throughout.

`C[C@]1(S(=O)(=O)c2ccccc2)C[C@H]2N(Cc3ccccc3)[C@@H]1CCC21OCCO1`: the TGI in experiment [1] was more than 100 µM; in experiment [2], more than 100 µM; in experiment [3], more than 100 µM; in [4], more than 100 µM; in [5], more than 100 µM; in [6] it was 69.3 µM. The TGI in experiment [7], in experiment [8], in [9] and in experiment [10] was more than 100 µM each time.

With `Cc1c2ccncc2c(C)c2c1[nH]c1ccccc12`, the TGI was 2.07 µM in experiment [1]; 0.509 µM in [2]; 2.09 µM in experiment [3]; 2.36 µM in experiment [4]; 2.01 µM in experiment [5]; 4.64 µM in experiment [6]. In addition, the TGI was determined as 4.32 µM in experiment [7], 2.58 µM in experiment [8], 1.75 µM in [9] and 2.64 µM in experiment [10]. Moreover, the results for the GI50 in [2] and in experiment [7] were 0.173 µM and 0.473 µM, respectively.

For the compound `COC(=O)c1cc2c(cc1CC(Cc1ccc3c(c1)CCC3)C(=O)OC)CCC2` (configuration not stated), the TGI was more than 100 µM in [1]; more than 100 µM in experiment [2]; more than 100 µM in experiment [3]; more than 100 µM in [4]; 67.6 µM in experiment [5]; 81.3 µM in experiment [6]. The TGI in experiment [7], in experiment [8], in experiment [9] and in experiment [10] was more than 100 µM each time.

Turning to `O=C(O)c1c2c(cc3c1CC1(Cc4ccccc4C1=O)C3)CCC2` (configuration not stated), the TGI in experiment [1] was more than 100 µM; in experiment [2], more than 90.7 µM; in [3] it was more than 100 µM; in [4] it was more than 100 µM; in [5], more than 65 µM; in experiment [6] it was more than 100 µM. Further, the TGI was more than 100 µM in experiment [7], more than 100 µM in experiment [8], 36 µM in experiment [9] and more than 94.6 µM in experiment [10].

With `COc1cc2c(cc1OC)C13CC[N+]4(C)CC5=CCOC6CC(=O)N2C1C6C5CC34[O-]` (configuration not stated), the TGI in experiment [1], in experiment [2], in experiment [3], in experiment [4], in [5] and in [6] was more than 100 µM throughout. The TGI in experiment [7], in experiment [8], in experiment [9] and in experiment [10] was more than 100 µM each time.

As for `COc1cc(OCc2ccc3nc(OC)c(OC)nc3c2)cc(OC)c1OC`, the TGI in experiment [1], in [2], in [3], in [4], in experiment [5] and in [6] was more than 10 µM in each case. Besides, the TGI in [7], in experiment [8], in experiment [9] and in experiment [10] was more than 10 µM each time.

On to `O=C(CCCN1CCC2(CC1)C(=NC1CCCCC1)NC(=O)N2c1ccccc1)c1ccc(F)cc1`, for which the TGI is more than 100 µM in experiment [1]; 76.4 µM in experiment [2]; more than 100 µM in experiment [3]; 42.5 µM in experiment [4]; 37.9 µM in [5]; 36 µM in experiment [6]. Further, the TGI in experiment [7] is more than 100 µM; in [8], 48.1 µM; in experiment [9] it was 57.2 µM; in experiment [10], 56 µM.

Regarding `N#CCCN(CCC#N)c1ccc(/C=C2\SC(=S)NC2=O)cc1Br`, the TGI in experiment [1] was more than 100 µM; in [2], more than 100 µM; in experiment [3] it was 56.3 µM; in experiment [4] it was more than 100 µM; in experiment [5] it was more than 100 µM; in [6], more than 100 µM. In addition, the TGI in [7], in experiment [8], in experiment [9] and in experiment [10] was more than 100 µM each time.

Take `N#Cc1c(C#N)c(-c2ccccc2)n(-c2ccccc2)c1N`: the TGI in experiment [1] was more than 100 µM; in experiment [2], 56.1 µM; in experiment [3], more than 100 µM; in [4], more than 100 µM; in [5], more than 100 µM; in experiment [6], more than 100 µM. In addition, the TGI is more than 100 µM in [7], more than 100 µM in experiment [8], more than 100 µM in experiment [9] and 86.4 µM in experiment [10].
